# Where two headings read alike, the source gives them in different places. Residues, ends and D or L forms follow the SMILES beside them.
# How the values were obtained:
# [1] = biological target: T1, Scrib PDZ-1 domain (Homo sapiens, UniProt Q14160); test: In-solution fluorescence polarization binding of peptides to Scrib PDZ1
# T1 construct: ROC curves of DomPep prediction for the three Scrib PDZ-1/2/3 domains
# [2] = biological target: T2, Scrib PDZ-2 domain (Homo sapiens, UniProt Q14160); test: In-solution fluorescence polarization binding of peptides to Scrib PDZ2
# T2 construct: ROC curves of DomPep prediction for the three Scrib PDZ-1/2/3 domains
# T2 sequence (Q14160 862-950 limits assumed): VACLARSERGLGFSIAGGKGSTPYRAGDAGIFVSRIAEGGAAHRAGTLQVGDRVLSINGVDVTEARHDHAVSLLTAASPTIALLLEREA
# [3] = Kd value of 100 µM applied as binding cutoff, NB without definition, read-out: Kd (µM) PDZ1
# [4] = Kd value of 100 µM applied as binding cutoff, NB without definition, read-out: Kd (µM) PDZ2
# T1 sequence (Q14160 728-815 limits assumed): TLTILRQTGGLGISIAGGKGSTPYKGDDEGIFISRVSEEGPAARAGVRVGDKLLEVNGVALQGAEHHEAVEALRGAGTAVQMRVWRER
"Kd [1, 3] [µM]","Kd [2, 4] [µM]",Compound,"Kd ([1]; read-out: Kd (µM) PDZ1, Kd value of 100 µM applied as binding cutoff, NB without definition) [µM]","Kd ([2]; read-out: Kd (µM) PDZ2, Kd value of 100 µM applied as binding cutoff, NB without definition) [µM]"
> 100,> 100,CC(C)C[C@H](NC(=O)[C@H](CO)NC(=O)[C@@H](NC(=O)[C@H](CC(=O)O)NC(=O)[C@@H](NC(=O)[C@H](CC(C)C)NC(=O)[C@H](CCC(N)=O)NC(=O)CNC(=O)[C@@H]1CCCN1C(=O)[C@@H](N)CCC(N)=O)C(C)C)[C@@H](C)O)C(=O)O [ANKS4B] (H-QPGQLVDTSL-OH),–,–
> 100,> 100,CC(C)C[C@H](NC(=O)[C@H](CO)NC(=O)[C@H](CO)NC(=O)[C@H](CCC(=O)O)NC(=O)[C@H](Cc1ccc(O)cc1)NC(=O)[C@H](CO)NC(=O)[C@@H](NC(=O)[C@H](C)NC(=O)[C@@H](NC(=O)[C@@H](N)CCCCN)C(C)C)[C@@H](C)O)C(=O)O [STK29] (H-KVATSYESSL-OH),–,–
> 100,75.7,CSCC[C@H](NC(=O)CNC(=O)[C@H](CC(N)=O)NC(=O)[C@@H](NC(=O)[C@H](CC(C)C)NC(=O)[C@H](CCC(N)=O)NC(=O)[C@@H](N)C(C)C)C(C)C)C(=O)N[C@H](C(=O)N1CCC[C@H]1C(=O)N[C@@H](CC(C)C)C(=O)O)C(C)C [EPHA5] (H-VQLVNGMVPL-OH),–,–
16,> 100,CC(C)C[C@H](NC(=O)[C@H](CCC(=O)O)NC(=O)[C@@H](NC(=O)[C@H](CC(=O)O)NC(=O)[C@H](Cc1ccc(O)cc1)NC(=O)[C@H](CCCNC(=N)N)NC(=O)[C@H](C)NC(=O)[C@H](CO)NC(=O)[C@@H](N)CCC(N)=O)[C@@H](C)O)C(=O)O [ZO2] (H-QSARYDTEL-OH),–,–
> 100,> 100,CC(C)[C@H](NC(=O)[C@H](CO)NC(=O)[C@@H](NC(=O)[C@@H](NC(=O)[C@@H](NC(=O)[C@H](CCCNC(=N)N)NC(=O)[C@@H](NC(=O)[C@H](CCCCN)NC(=O)[C@H](C)NC(=O)[C@@H](N)CO)C(C)C)[C@@H](C)O)C(C)C)[C@@H](C)O)C(=O)O [RASL11B] (H-SAKVRTVTSV-OH),–,–
> 100,> 100,CC[C@H](C)[C@H](N)C(=O)N[C@@H](CC(C)C)C(=O)N[C@@H](CCCNC(=N)N)C(=O)N[C@@H](CCCCN)C(=O)N[C@@H](CO)C(=O)N[C@H](C(=O)N[C@H](C(=O)N[C@H](C(=O)N[C@H](C(=O)N[C@H](C(=O)O)C(C)C)[C@@H](C)O)[C@@H](C)O)[C@@H](C)O)[C@@H](C)O [DSC54] (H-ILRKSTTTTV-OH),–,–
12.5,10.4,CC(C)C[C@H](NC(=O)[C@@H](NC(=O)[C@H](CC(N)=O)NC(=O)[C@@H](N)CCCNC(=N)N)[C@@H](C)O)C(=O)N[C@@H](Cc1ccc(O)cc1)C(=O)N[C@@H](Cc1ccccc1)C(=O)N[C@@H](CO)C(=O)N[C@H](C(=O)N[C@@H](CC(=O)O)C(=O)N[C@H](C(=O)O)C(C)C)[C@@H](C)O [ABR] (H-RNTLYFSTDV-OH),–,–
20.3,56.1,CC(C)C[C@H](NC(=O)[C@@H]1CCCN1C(=O)[C@@H](NC(=O)[C@H](CCC(=O)O)NC(=O)[C@H](CCCCN)NC(=O)[C@H](CO)NC(=O)[C@@H](NC(=O)[C@H](CCCNC(=N)N)NC(=O)[C@H](C)NC(=O)CN)C(C)C)[C@@H](C)O)C(=O)O [MAPK12] (H-GARVSKETPL-OH),–,–
> 100,62.7,CSCC[C@H](NC(=O)CN)C(=O)N[C@@H](CCCCN)C(=O)N[C@@H](CCCNC(=N)N)C(=O)N[C@@H](CC(C)C)C(=O)N[C@H](C(=O)N[C@@H](CO)C(=O)N[C@H](C(=O)N[C@@H](CCCNC(=N)N)C(=O)N[C@@H](CC(C)C)C(=O)O)[C@@H](C)O)[C@@H](C)O [RPS6KA2] (H-GMKRLTSTRL-OH),–,–
> 100,> 100,CC[C@H](C)[C@H](NC(=O)[C@H](CCCNC(=N)N)NC(=O)[C@@H](NC(=O)[C@H](CO)NC(=O)[C@H](CC(C)C)NC(=O)[C@H](C)NC(=O)[C@@H](N)CO)C(C)C)C(=O)N[C@@H](CO)C(=O)N[C@@H](CC(N)=O)C(=O)N[C@H](C(=O)O)C(C)C [KCNJ10] (H-SALSVRISNV-OH),–,–
24.2,> 100,CC(C)C[C@H](NC(=O)[C@H](CC(=O)O)NC(=O)[C@@H](NC(=O)[C@H](CO)NC(=O)[C@H](C)NC(=O)[C@H](CCCCN)NC(=O)[C@H](C)NC(=O)[C@@H](NC(=O)[C@H](CC(C)C)NC(=O)[C@@H](N)C(C)C)[C@@H](C)O)[C@@H](C)O)C(=O)O [LPP] (H-VLTAKASTDL-OH),–,–
17.4,46,CC[C@H](C)[C@H](NC(=O)[C@@H]1CCCN1C(=O)[C@H](Cc1c[nH]cn1)NC(=O)[C@@H](NC(=O)[C@@H](N)Cc1ccccc1)C(C)C)C(=O)N[C@@H](CC(C)C)C(=O)N[C@@H](CCC(N)=O)C(=O)N[C@@H](CO)C(=O)N[C@@H](C)C(=O)N[C@H](C(=O)O)C(C)C [PRKCA] (H-FVHPILQSAV-OH),–,–
> 100,> 100,CC[C@H](C)[C@H](NC(=O)[C@H](CCC(N)=O)NC(=O)[C@@H](NC(=O)[C@@H](NC(=O)[C@H](Cc1c[nH]cn1)NC(=O)[C@H](CCC(N)=O)NC(=O)CNC(=O)[C@@H]1CCCN1C(=O)[C@H](C)NC(=O)[C@@H]1CCCN1)[C@@H](C)O)[C@@H](C)O)C(=O)O [STK16] (H-PAPGQHTTQI-OH),–,–
1.9,17.6,CC(C)C[C@H](NC(=O)[C@H](CO)NC(=O)[C@@H](NC(=O)[C@H](CCC(=O)O)NC(=O)[C@H](CCC(=O)O)NC(=O)[C@H](CS)NC(=O)[C@@H](NC(=O)[C@H](CCCNC(=N)N)NC(=O)[C@@H](NC(=O)[C@@H]1CCCN1)C(C)C)C(C)C)[C@@H](C)O)C(=O)O [FAM105B] (H-PVRVCEETSL-OH),–,–
12.3,9.5,CC(C)C[C@H](NC(=O)[C@H](Cc1ccc(O)cc1)NC(=O)[C@H](CO)NC(=O)CNC(=O)[C@H](CO)NC(=O)[C@@H](N)Cc1c[nH]cn1)C(=O)N[C@H](C(=O)N[C@H](C(=O)N[C@@H](CO)C(=O)N[C@H](C(=O)O)C(C)C)[C@@H](C)O)C(C)C [APC] (H-HSGSYLVTSV-OH),–,–
> 100,32.1,CC[C@H](C)[C@H](NC(=O)[C@@H](NC(=O)[C@H](CCC(=O)O)NC(=O)[C@H](CO)NC(=O)[C@@H]1CCCN1C(=O)[C@H](CCC(N)=O)NC(=O)[C@H](C)NC(=O)[C@H](CO)NC(=O)[C@@H](N)CO)[C@@H](C)O)C(=O)N[C@@H](CC(C)C)C(=O)O [ZNF654] (H-SSAQPSETIL-OH),–,–
–,–,CSCC[C@H](NC(=O)[C@H](CC(C)C)NC(=O)[C@@H](NC(=O)[C@H](C)NC(=O)[C@H](CCSC)NC(=O)[C@H](CCCCN)NC(=O)[C@H](CC(N)=O)NC(=O)[C@@H]1CCCN1C(=O)[C@H](CC(N)=O)NC(=O)[C@@H](N)CC(C)C)[C@@H](C)O)C(=O)O [GLO1] (H-LNPNKMATLM-OH),> 100,> 100
19.2,> 100,CC(C)C[C@H](NC(=O)[C@H](CO)NC(=O)[C@@H](NC(=O)[C@@H](NC(=O)[C@@H](NC(=O)[C@H](Cc1ccccc1)NC(=O)[C@@H](NC(=O)[C@H](CC(=O)O)NC(=O)[C@H](CCC(=O)O)NC(=O)[C@@H]1CCCN1)[C@@H](C)O)[C@@H](C)O)C(C)C)[C@@H](C)O)C(=O)O [AHDC1] (H-PEDTFTVTSL-OH),–,–
> 100,24.9,CC(C)C[C@H](NC(=O)[C@H](CS)NC(=O)[C@H](Cc1c[nH]cn1)NC(=O)[C@H](CC(C)C)NC(=O)[C@H](C)NC(=O)[C@H](CCC(=O)O)NC(=O)[C@H](CC(C)C)NC(=O)[C@H](CCC(=O)O)NC(=O)[C@@H]1CCCN1C(=O)[C@@H](N)CC(=O)O)C(=O)O [EPHA8] (H-DPELEALHCL-OH),–,–
102,> 100,CC[C@H](C)[C@H](NC(=O)[C@H](CO)NC(=O)[C@H](CO)NC(=O)[C@H](CCC(=O)O)NC(=O)[C@H](C)NC(=O)[C@H](CO)NC(=O)[C@H](C)NC(=O)[C@@H](NC(=O)[C@H](CC(=O)O)NC(=O)[C@@H](N)C(C)C)[C@@H](C)CC)C(=O)O [TANK] (H-VDIASAESSI-OH),–,–
> 100,> 100,CC[C@H](C)[C@H](NC(=O)[C@H](CCCNC(=N)N)NC(=O)[C@@H](NC(=O)[C@H](CCCNC(=N)N)NC(=O)[C@H](CO)NC(=O)[C@H](C)NC(=O)[C@@H](N)CC(N)=O)[C@@H](C)O)C(=O)N[C@H](C(=O)N[C@@H](Cc1ccccc1)C(=O)N[C@H](C(=O)O)C(C)C)[C@@H](C)O [MCM7] (H-NASRTRITFV-OH),–,–
> 100,> 100,CC[C@H](C)[C@H](NC(=O)[C@H](CC(C)C)NC(=O)[C@H](CCC(N)=O)NC(=O)[C@H](CCSC)NC(=O)[C@H](CC(N)=O)NC(=O)[C@H](Cc1ccccc1)NC(=O)[C@@H](N)CO)C(=O)N[C@@H](CO)C(=O)N[C@@H](CCC(N)=O)C(=O)N[C@H](C(=O)O)C(C)C [FAM126B] (H-SFNMQLISQV-OH),–,–
> 100,> 100,CC(C)C[C@H](NC(=O)[C@@H](NC(=O)CNC(=O)[C@H](CC(N)=O)NC(=O)[C@H](CCCCN)NC(=O)[C@H](CO)NC(=O)[C@H](CC(=O)O)NC(=O)[C@H](Cc1ccc(O)cc1)NC(=O)[C@@H](N)CCCNC(=N)N)[C@@H](C)O)C(=O)N[C@H](C(=O)O)C(C)C [C11orf52] (H-RYDSKNGTLV-OH),–,–
> 100,> 100,CC[C@H](C)[C@H](NC(=O)[C@H](CC(=O)O)NC(=O)[C@H](CC(N)=O)NC(=O)[C@H](CC(C)C)NC(=O)[C@H](C)NC(=O)[C@H](CC(N)=O)NC(=O)[C@@H](N)CC(=O)O)C(=O)N[C@H](C(=O)N[C@@H](CO)C(=O)N[C@@H](CC(C)C)C(=O)O)[C@@H](C)O [TPM2] (H-DNALNDITSL-OH),–,–
21.6,–,CSCC[C@H](NC(=O)[C@@H](N)C(C)C)C(=O)N[C@@H](CCCNC(=N)N)C(=O)N[C@@H](CC(C)C)C(=O)N[C@@H](CCC(N)=O)C(=O)N[C@@H](CO)C(=O)N[C@@H](CCC(=O)O)C(=O)N[C@H](C(=O)N[C@@H](CO)C(=O)N[C@H](C(=O)O)C(C)C)[C@@H](C)O [VANGL2] (H-VMRLQSETSV-OH),–,–
